Reference: US20230355690A1, “METHOD OF TREATMENT WITH LACTIC ACID BACTERIA” (UNIVERSITY-INDUSTRY COOPERATION GROUP OF KYUNG HEE …, priority 2017, published 2023)

Experiments:
NF-κB (p-p65/p65) [1] = assay: Inflammation reaction inhibiting effect on macrophage (LPS): NF-κB activation, immunoblotting; type: cell-based; settings: C57BL/6J mouse peritoneal macrophage + LPS; lactic acid bacteria 1×10^4 CFU/ml
Method: (§1) A six-week old C57BL/6J male mouse (20-23 g) was purchased from Raonbio Co., Ltd. 2 ml of sterilized 4% thioglycolate was intraperitoneally administered into the mouse, which was then anesthetized in 96 hours later. After that, 8 ml of RPMI 1640 medium was intraperitoneally administered to the mouse. In 5 to 10 minutes later, the RPMI medium (including macrophage) was intraperitoneally extracted again from the mouse, then centrifuged on condition of 1000 rpm for 10 minutes, and then washed twice again with the RPMI 1640 medium. The macrophage was plated into a 24-well plate at 0.5×10^6 cells per well, then cultured for 24 hours, and then unattached cells were removed therefrom. The macrophage culture fluid was treated with a test material, i.e., lactic acid bacteria as well as an inflammation reaction inducer, i.e., lipopolysaccharide (LPS) for 90 minutes or 24 hours, and then supernatant and cells were obtained therefrom. At that time, a treatment concentration of lactic acid bacteria was 1×10^4 CFU/ml. Also, in order to compare the effects of lactic acid bacteria, various prebiotics were used as the test material.
An expression level of TNF-α from said obtained supernatant was measured by means of an ELISA kit. Also, the expression level of p65 (NF-κB), p-p65 (phosphor-NF-κB) and β-actin was measured from said obtained cells by means of an immunoblotting method. Particularly, 50 μg of the supernatant was taken and subjected to electrophoresis in SDS 10% (w/v) polyacrylamide gel for one and half an hour. The electrophoresed sample was transferred onto a nitrocellulose paper on condition of 100 V and 400 mA for one hour and 10 minutes. The nitrocellulose paper, onto which the sample was transferred, was subjected to blocking by means of 5% skim milk for 30 minutes, then washed with PBS-Tween three times for five minutes each, and then subjected to reaction overnight with an addition of primary antibodies (Santa Cruz Biotechnology, the U.S.) at a ratio of 1:100. After that, such paper was washed three times for ten minutes each, and subjected to reaction with the addition of secondary antibodies (Santa Cruz Biotechnology, the U.S.) at a ratio of 1:1000 for one hour and 20 minutes. Then, such paper was washed three times for 15 minutes each, then subjected to fluorescent color formation, then developed, and then the intensity of chromophore band was measured.

NF-κB (p-p65/p65) [2] = assay: Inflammation reaction inhibiting effect on dendritic cells (LPS): NF-κB activation, immunoblotting; type: cell-based; settings: C57BL/6 mouse bone marrow dendritic cells + LPS, 90 minutes; lactic acid bacteria 1×10^4 CFU/ml
Source text: (§2) Immune cells were isolated from the bone marrow of a C57BL/6 mouse (male, 20-23 g) by using RPMI 1640 containing 10% FBS, 1% antibiotics, 1% glutamax and 0.1% mercaptoethanol, then treated with RBC lysis buffer, and then washed. Said cells were divided into each well of a 24-well plate, then treated with GM-CSF and IL-4 at a ratio of 1:1000, and then cultured. On a 5th day of culture, the cells were replaced with a new medium, then collected on an 8th day thereof, and then used as dendritic cells. After that, the dendritic cells were plated into a 24-well plate at 0.5×10^6 cells per well, then treated with a test material, i.e., lactic acid bacteria, as well as an inflammation reaction inducer, i.e., lipopolysaccharide (LPS) for 90 minutes or 24 hours, and then supernatant and cells were obtained therefrom. At that time, a treatment concentration of lactic acid bacteria was 1×10^4 CFU/ml. Also, in order to compare the effects of lactic acid bacteria, various prebiotics were used as the test material.
(§3) An expression level of IL-10 and IL-12 was measured from said obtained supernatant by means of an ELISA kit. Also, the expression level of p65 (NF-κB), p-p65 (phosphor-NF-κB) and β-actin was measured from the cells, which have been obtained after being treated with the test material for 90 minutes, by means of the same immunoblotting method as in Example 2.(1) above. The results of testing the inflammation reaction inhibiting effect of lactic acid bacteria on dendritic cells are shown in following tables 8 to 10.

IL-12 = assay: Inflammation reaction inhibiting effect on dendritic cells (LPS): IL-12 expression, ELISA; type: cell-based; settings: C57BL/6 mouse bone marrow dendritic cells + LPS; lactic acid bacteria 1×10^4 CFU/ml
Source text: as §2, §3

IL-10 = assay: Inflammation reaction inhibiting effect on dendritic cells (LPS): IL-10 expression, ELISA; type: cell-based; settings: C57BL/6 mouse bone marrow dendritic cells + LPS; lactic acid bacteria 1×10^4 CFU/ml
Source text: as §2, §3

Th1 cell = assay: Spleen T cell differentiation into Th1 cells, FACS; type: cell-based; settings: C56BL/6J mouse spleen CD4 T cells; lactic acid bacteria 1×10^5 CFU per well, four days
Method: (§4) Particularly, a spleen was isolated from a C56BL/6J mouse, then crushed, then suspended in an RPMI 1640 medium containing 10% FCS, and then CD4 T cells were isolated by using a CD4 T cell isolation kit (MiltenyiBiotec, Bergisch Gladbach, Germany). The isolated CD4 T cells were divided into a 12-well plate at 5×10^5 cells per well. After that, the cells were cultured in each well with an addition of anti-CD3, anti-CD28, IL-2 and IL-12 to induce a differentiation of T cells into Th1 cells; with the addition of anti-CD3, anti-CD28, IL-2 and IL-4 to induce the differentiation of T cells into Th2 cells; with the addition of anti-CD3, anti-CD28, IL-6 and TGF-β to induce the differentiation of T cells into Th17 cells; and with the addition of anti-CD3 and anti-CD28 to induce the differentiation of T cells into Treg cells, and a test material, i.e., lactic acid bacteria were inserted thereinto at 1×10^5 CFU per well, and then cultured for four days. Also, in order to compare the effects of lactic acid bacteria, various prebiotics were used as the test material.
(§5) After that, a differentiation potency of the T cells isolated from the spleen into Th1, Th2, Th17 and Treg cells was measured. Particularly, the cells of culture fluid were stained with anti-FOXp3 or anti-IL-17A antibodies, after which a distribution of Th1, Th2, Th17 and Treg cells was analyzed by means of a FACS (fluorescence-activated cell sorting) device (C6 Flow Cytometer® System, San Jose, CA, USA), wherein results thereof are shown in following tables 11 to 13. In the tables 11 to 13 below, the lactic acid bacteria are shown without species names thereof, and are given strain names assigned by the present inventors.

Th2 cell = assay: Spleen T cell differentiation into Th2 cells, FACS; type: cell-based; settings: C56BL/6J mouse spleen CD4 T cells; lactic acid bacteria 1×10^5 CFU per well, four days
Method: as §4, §5

Th17 cell = assay: Spleen T cell differentiation into Th17 cells, FACS; type: cell-based; settings: C56BL/6J mouse spleen CD4 T cells; lactic acid bacteria 1×10^5 CFU per well, four days
Method: as §4, §5

Treg cell = assay: Spleen T cell differentiation into Treg cells, FACS; type: cell-based; settings: C56BL/6J mouse spleen CD4 T cells; lactic acid bacteria 1×10^5 CFU per well, four days
Method: as §4, §5

[3] = system: animal model with induced allergic rhinitis and asthma; assay: Example 6: OVA-induced allergic rhinitis and asthma mice, indicators in serum and BALF (ELISA, FACS); type: in vivo, mouse; settings: oral once daily for five days, Dx 1 mg/kg intraperitoneal
Method: Seven week-old BALB/C female mice (21-23 g) were acclimated for one week on condition of a controlled environment with humidity of 50%, temperature of 25° C., and light/dark cycle of 12:12 hours. After that, 20 μg of allergy-inducing ovalbumin (OVA) and 2 mg of aluminum hydroxide (Alum) were suspended into 0.2 ml of phosphate buffered saline (PBS: pH 7.4) and intraperitoneally injected into each of the mice on initial and 14th days of an experiment. Then, 100 μg of the OVA was dissolved in 10 μl of distilled water, and intranasally smeared onto each of the mice to induce allergic rhinitis and asthma therefrom on 26th, 27th and 28th days of the experiment. Meanwhile, a test drug, i.e., lactic acid bacteria were orally administered into each of the mice once daily for a total of five days from 26th to 30th days of the experiment. Also, dexamethasone, which was used as a positive control drug instead of lactic acid bacteria, was intraperitoneally administered at a dose of 1 mg/kg b.w. Further, in case of the mice of a normal group, allergic rhinitis and asthma were not induced therefrom, but only the phosphate buffered saline (PBS: pH 7.4) was orally administered thereinto instead of the OVA and the test drug. Furthermore, in case of the mice of a control group, allergic rhinitis and asthma were induced therefrom, and only the phosphate buffered saline (PBS: pH 7.4) was orally administered thereinto as the test drug. After an end of the experiment, the mice were anesthetized, after which blood, lung tissues and the BALF were collected therefrom. Serum was isolated from the blood collected by means of centrifugation, and used as an assay sample. Indicators related to anti-rhinitis and anti-asthma effects were analyzed from serum, the BALF and lung tissues by using various analysis methods. Each analysis method and indicators analyzed thereby are as follows. • Enzyme-linked immunosorbent assay (ELISA): IL-10, IL-5, IL-6, IL-4, IgE, etc. • FACS (fluorescence-activated cell sorting): Distribution of T cells (Th1: CD4^+/IFN-γ^+; Th2: CD4^+/IL-4^+; Treg: CD4^+/FOXp3^+; Th17: CD4^+/IL-17^+), Distribution of eosinophils (CD11b^+, Siglec-F^+)

TNF-α = assay: Inflammation reaction inhibiting effect on macrophage (LPS): TNF-α expression, ELISA; type: cell-based; settings: C57BL/6J mouse peritoneal macrophage + LPS; lactic acid bacteria 1×10^4 CFU/ml
Method: as §1, with “At that time, a treatment concentration of lactic acid bacteria was 1×10^4 CFU/ml. Also, in order to compare the effects of lactic acid bacteria, various prebiotics were used as the test material.” left out
An expression level of TNF-α from said obtained supernatant was measured by means of an ELISA kit. Also, the expression level of p65 (NF-κB), p-p65 (phosphor-NF-κB) and β-actin was measured from said obtained cells by means of an immunoblotting method. […] Then, such paper was washed three times for 15 minutes each, then subjected to fluorescent color formation, then developed, and then the intensity of chromophore band was measured.

Compound	NF-κB activation inhibition rate (p-p65/p65) (NF-κB (p-p65/p65) [1])	NF-κB activation inhibition rate (p-p65/p65) (NF-κB (p-p65/p65) [2])	IL-12 expression inhibition rate (IL-12)	IL-10 expression increasing rate (IL-10)	Differentiation inhibition rate Th1 cell (Th1 cell)	Differentiation inhibition rate Th2 cell (Th2 cell)	Differentiation inhibition rate Th17 cell (Th17 cell)	Differentiation increasing rate Treg cell (Treg cell)	Increasing rate Treg cell ([3]; BALF, FACS)	Inhibition rate Eosinophils ([3]; BALF, FACS)	Inhibition rate Th2 cell ([3]; BALF, FACS)	Increasing rate IL-10 ([3]; BALF)	Inhibition rate IL-4 ([3]; BALF)	Inhibition rate IL-5 ([3]; BALF)	Inhibition rate IL-4 ([3]; serum)	Inhibition rate IL-5 ([3]; serum)	Inhibition rate IgE ([3]; serum)	TNF-α expression inhibition rate (TNF-α)
OC[C@H]1O[C@@H](O[C@@H]2[C@@H](CO)OC(O)(CO)[C@H]2O)[C@H](O)[C@@H](O)[C@H]1O (mixture of isomers) [Lactulose, lactulose]	+ (10-30%)	+ (10-30%)	+ (10-30%)	− (<10%)	+ (10-30%)	++ (30-60%)	− (<10%)	++ (50-100%)	–	–	–	–	–	–	–	–	–	–
C[C@@H]1C[C@H]2[C@@H]3CCC4=CC(=O)C=C[C@]4(C)[C@@]3(F)[C@@H](O)C[C@]2(C)[C@@]1(O)C(=O)CO [Dx, dexamethasone]	–	–	–	–	–	–	–	–	− (<10%)	+++ (>60%)	+++ (>60%)	++ (50-100%)	+++ (>60%)	+++ (>60%)	+++ (>60%)	++ (30-60%)	+++ (>60%)	–
OC[C@H]1O[C@H](O[C@H]2O[C@H](CO)[C@@H](O)[C@H](O)[C@H]2O)[C@H](O)[C@@H](O)[C@@H]1O [Trehalose, trehalose]	+ (10-30%)	+ (10-30%)	+ (10-30%)	+ (10-50%)	+ (10-30%)	+ (10-30%)	+ (10-30%)	+ (10-50%)	–	–	–	–	–	–	–	–	–	–
cyclodextrin	+ (10-30%)	+ (10-30%)	+ (10-30%)	− (<10%)	++ (30-60%)	+ (10-30%)	++ (30-60%)	+ (10-50%)	–	–	–	–	–	–	–	–	–	–
gelatin	+ (10-30%)	+ (10-30%)	+ (10-30%)	+ (10-50%)	+ (10-30%)	++ (30-60%)	+ (10-30%)	+ (10-50%)	–	–	–	–	–	–	–	–	–	+ (10-30%)
